In patent publication US7304174B2, “CaSR antagonist” (Japan Tobacco Inc., priority 2003, dated 2007):

Molecular target: T1, human calcium receptor (Homo sapiens, UniProt P41180)
T1 construct: expressed in transfected cells; host or cells: cell strain derived from rat adrenal, co-transformed with luciferase cDNA
T1 sequence (P41180 20-1078): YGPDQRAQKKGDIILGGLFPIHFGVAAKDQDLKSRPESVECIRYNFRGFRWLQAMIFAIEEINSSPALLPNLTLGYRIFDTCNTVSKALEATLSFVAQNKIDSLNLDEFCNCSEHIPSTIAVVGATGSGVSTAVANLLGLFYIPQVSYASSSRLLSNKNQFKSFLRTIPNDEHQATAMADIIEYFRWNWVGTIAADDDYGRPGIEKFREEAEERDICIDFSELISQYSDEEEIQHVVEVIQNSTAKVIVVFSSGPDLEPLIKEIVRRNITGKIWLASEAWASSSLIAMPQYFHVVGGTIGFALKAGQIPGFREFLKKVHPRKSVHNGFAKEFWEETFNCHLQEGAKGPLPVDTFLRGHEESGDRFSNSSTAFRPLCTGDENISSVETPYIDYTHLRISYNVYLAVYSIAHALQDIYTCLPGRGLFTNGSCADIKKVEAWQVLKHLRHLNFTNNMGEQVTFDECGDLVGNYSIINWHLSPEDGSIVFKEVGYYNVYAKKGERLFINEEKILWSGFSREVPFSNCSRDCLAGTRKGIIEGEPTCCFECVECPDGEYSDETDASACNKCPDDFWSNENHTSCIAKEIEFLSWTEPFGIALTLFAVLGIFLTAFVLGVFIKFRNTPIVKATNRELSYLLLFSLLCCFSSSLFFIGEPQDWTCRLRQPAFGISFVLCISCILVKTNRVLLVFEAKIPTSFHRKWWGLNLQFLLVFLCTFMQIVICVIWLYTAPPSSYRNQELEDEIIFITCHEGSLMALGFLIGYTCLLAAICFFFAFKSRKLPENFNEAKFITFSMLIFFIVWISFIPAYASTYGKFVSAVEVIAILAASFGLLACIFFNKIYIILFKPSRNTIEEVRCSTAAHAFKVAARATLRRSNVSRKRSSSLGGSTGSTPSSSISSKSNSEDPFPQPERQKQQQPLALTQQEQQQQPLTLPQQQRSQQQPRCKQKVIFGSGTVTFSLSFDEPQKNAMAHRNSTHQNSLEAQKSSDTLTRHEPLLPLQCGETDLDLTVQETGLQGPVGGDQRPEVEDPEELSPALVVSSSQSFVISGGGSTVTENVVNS
Assay: Evaluation of antagonistic action on calcium receptor using reporter gene (luciferase)
Type: cell-based
Details: transformed rat adrenal derived cells, 5 mM calcium chloride, culture 4 hrs, luciferase activity; read-out: Reporter gene assay (IC50, concentration showing 50% inhibitory rate)
In short: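 Rat adrenal-derived cells transfected with luciferase and human calcium receptor cDNA, in F12 with 0.5% dialyzed horse serum and 0.25% dialyzed fetal bovine serum. Luciferase luminescence gave % inhibition vs control and blank; IC50 at 50% inhibition.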

Row | Compound | IC50 [nM]
1 | Cc1cc(C(=O)O)ccc1-c1ccccc1[C@@H](C)OC[C@H](O)CNC(C)(C)Cc1ccc(Cl)c(F)c1 [Example 1-83, 2′-[1-[(2R)-3-[[1-(4-chloro-3-fluorophenyl)-2-methylpropan-2-yl]amino]-2-hydroxypropoxy]ethyl]-2-methylbiphenyl-4-carboxylic acid] | 16
2 | Cc1cc(C(=O)O)ccc1-c1ccccc1[C@@H](C)OC[C@H](O)CNC(C)(C)Cc1ccc(Cl)cc1F [Example 1-84, 2′-[1-[(2R)-3-[[1-(4-chloro-2-fluorophenyl)-2-methylpropan-2-yl]amino]-2-hydroxypropoxy]ethyl]-2-methylbiphenyl-4-carboxylic acid] | 22
3 | Cc1ccc(CC(C)(C)NC[C@@H](O)CO[C@H](C)c2ccccc2-c2ccc(C)c(C(=O)O)c2)cc1F [Example 1-86, 2′-[1-[(2R)-3-[[1-(3-fluoro-4-methylphenyl)-2-methylpropan-2-yl]amino]-2-hydroxypropoxy]ethyl]-4-methylbiphenyl-3-carboxylic acid] | 14
4 | Cc1cc(-c2ccccc2[C@@H](C)OC[C@H](O)CNC(C)(C)Cc2cc(Cl)cc(Cl)c2)ccc1C(=O)O [Example 1-87, 2′-[1-[(2R)-3-[[1-(3,5-dichlorophenyl)-2-methylpropan-2-yl]amino]-2-hydroxypropoxy]ethyl]-3-methylbiphenyl-4-carboxylic acid] | 14
5 | Cc1cc(F)c(CC(C)(C)NC[C@@H](O)CO[C@H](C)c2ccccc2-c2ccc(C(=O)O)c(C)c2)cc1Cl [Example 1-90, 2′-[1-[(2R)-3-[[1-(5-chloro-2-fluoro-4-methylphenyl)-2-methylpropan-2-yl]amino]-2-hydroxypropoxy]ethyl]-3-methylbiphenyl-4-carboxylic acid] | 271
6 | Cc1cc(-c2ccccc2[C@@H](C)OC[C@H](O)CNC(C)(C)Cc2cccc(Cl)c2F)ccc1C(=O)O [Example 1-91, 2′-[1-[(2R)-3-[[1-(3-chloro-2-fluorophenyl)-2-methylpropan-2-yl]amino]-2-hydroxypropoxy]ethyl]-3-methylbiphenyl-4-carboxylic acid] | 28
7 | Cc1cc(-c2ccccc2[C@@H](C)OC[C@H](O)CNC(C)(C)Cc2ccc(C(F)(F)F)c(F)c2)ccc1C(=O)O [Example 1-92, 2′-[1-[(2R)-3-[[1-(3-fluoro-4-trifluoromethylphenyl)-2-methylpropan-2-yl]amino]-2-hydroxypropoxy]ethyl]-3-methylbiphenyl-4-carboxylic acid] | 22

The remaining lines, values ahead:

Row | IC50 [nM] | Compound
8 | 26 | COc1cc(-c2ccccc2[C@@H](C)OC[C@H](O)CNC(C)(C)Cc2ccc(Cl)cc2F)ccc1C(=O)O [Example 1-81, 2′-[1-[(2R)-3-[[1-(4-chloro-2-fluorophenyl)-2-methylpropan-2-yl]amino]-2-hydroxypropoxy]ethyl]-3-methoxybiphenyl-4-carboxylic acid]
9 | 27 | COc1cc(-c2ccccc2[C@@H](C)OC[C@H](O)CNC(C)(C)Cc2ccc(Cl)c(F)c2)ccc1C(=O)O [Example 1-82, 2′-[1-[(2R)-3-[[1-(4-chloro-3-fluorophenyl)-2-methylpropan-2-yl]amino]-2-hydroxypropoxy]ethyl]-3-methoxybiphenyl-4-carboxylic acid]
10 | 4 | Cc1ccc(-c2ccccc2[C@@H](C)OC[C@H](O)CNC(C)(C)Cc2ccc3ccccc3c2)cc1C(=O)O [Example 1-85, 4-methyl-2′-[1-[(2R)-3-[[1-(naphthalen-2-yl)-2-methylpropan-2-yl]amino]-2-hydroxypropoxy]ethyl]biphenyl-3-carboxylic acid]
11 | 14 | Cc1cc(-c2ccccc2[C@@H](C)OC[C@H](O)CNC(C)(C)Cc2ccc(Cl)c(F)c2)ccc1C(=O)O [Example 1-88]
12 | 271 | Cc1cc(-c2ccccc2[C@@H](C)OC[C@H](O)CNC(C)(C)Cc2cc(F)ccc2F)ccc1C(=O)O [Example 1-89, 2′-[1-[(2R)-3-[[1-(2,5-difluorophenyl)-2-methylpropan-2-yl]amino]-2-hydroxypropoxy]ethyl]-3-methylbiphenyl-4-carboxylic acid]
